This is an account of results in patent publication US20250295656A1, “COMBINATION OF LURBINECTEDIN AND IMMUNE CHECKPOINT INHIBITORS” (priority 2020, published 2025).

The structures appear in SMILES notation.

This experiment has as its system human osteosarcoma U2OS cells. Description: Loss of viability by nuclear morphology (Hoechst 33342), automated microscopy. The format is cell-based. The note with it: lurbinectedin 1 nM to 1 μM, 4, 8, 16 and 32 hours, comparable to MTX 1 and 3 μM. On the procedure: (a) Human osteosarcoma U2OS (a), human breast cancer HCC70 (b) human colon cancer HT29 cells (c) and murine methylcholantrene-induced fibrosarcoma MCA205 cells (d) were treated with lurbinectedin (Lurbi, 1 nM, 10 nM, 100 nM and 1 μM) for the indicated times. Subsequently, the cells were stained with 1 μM Hoechst 33342 and 1 μM propidium iodide and assessed for the loss of viability by automated image acquisition. Images were segmented, cellular debris was excluded and the number of cells with normal nuclear morphology was enumerated. Cells stably expressing CALR-GFP were treated as above. Following the cells were fixed with 3.7% of PFA, stained with 1 μM Hoechst 33342 and assessed by automated image acquisition. Images were segmented, cellular debris was excluded and CALR-GFP granularity (a surrogate marker of CALR exposure) was evaluated in the cytoplasmic region of cells with normal nuclear morphology. Wild type cells were treated as above and then assessed for cytoplasmic quinacrine granularity (after staining with the ATP-sensitive dye quinacrine together with Hoechst 33342) by automated image acquisition, segmentation and analysis. Cells stably expressing HMGB1-GFP were treated as above and then assessed for nuclear HMGB1-GFP fluorescence intensity. The cells were fixed and stained with Hoechst 33342 and images were acquired, segmented and analyzed. […]

Regarding `COc1ccc2[nH]c3c(c2c1)CCN[C@]31CS[C@@H]2c3c(OC(C)=O)c(C)c4c(c3[C@H](COC1=O)N1[C@@H]2[C@H]2c3c(cc(C)c(OC)c3O)C[C@@H]([C@@H]1O)N2C)OCO4` [lurbinectedin], the cellular viability entry was “dose- and time-dependent drop”.
